Values of other authors, collected in patent US6998391B2, “Method for treating diseases associated with abnormal kinase activity” (SuperGen.Inc., priority 2002, dated 2006).
Counter-ions that a name gives are not always drawn. Like-named read-outs stand apart in the source and are kept apart here. One block for each compound: values may come before it. Where no end group is shown, it is not given here.

What was measured:
ZAP-70 = target: T1, ZAP-70 (Homo sapiens, UniProt P43403)
T1 sequence (P43403 1-619): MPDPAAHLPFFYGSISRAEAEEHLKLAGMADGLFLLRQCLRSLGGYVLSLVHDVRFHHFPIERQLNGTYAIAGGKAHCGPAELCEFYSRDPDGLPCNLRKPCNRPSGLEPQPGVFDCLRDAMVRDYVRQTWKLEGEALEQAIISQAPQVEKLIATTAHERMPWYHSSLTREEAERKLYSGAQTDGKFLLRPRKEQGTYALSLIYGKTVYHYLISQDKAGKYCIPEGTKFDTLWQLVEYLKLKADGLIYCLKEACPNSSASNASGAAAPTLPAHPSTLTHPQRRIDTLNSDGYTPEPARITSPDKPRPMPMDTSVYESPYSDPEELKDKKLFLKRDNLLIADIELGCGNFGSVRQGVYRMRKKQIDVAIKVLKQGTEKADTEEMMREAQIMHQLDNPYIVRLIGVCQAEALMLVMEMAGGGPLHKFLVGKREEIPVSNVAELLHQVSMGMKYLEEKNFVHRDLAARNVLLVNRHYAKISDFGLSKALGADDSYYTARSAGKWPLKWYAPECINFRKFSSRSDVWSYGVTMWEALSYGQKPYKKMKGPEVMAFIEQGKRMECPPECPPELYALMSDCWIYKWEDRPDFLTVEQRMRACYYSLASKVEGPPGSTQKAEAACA

Lck = Lck (Homo sapiens, UniProt P06239)
Chain of Lck (P06239 whole entry, species assumed): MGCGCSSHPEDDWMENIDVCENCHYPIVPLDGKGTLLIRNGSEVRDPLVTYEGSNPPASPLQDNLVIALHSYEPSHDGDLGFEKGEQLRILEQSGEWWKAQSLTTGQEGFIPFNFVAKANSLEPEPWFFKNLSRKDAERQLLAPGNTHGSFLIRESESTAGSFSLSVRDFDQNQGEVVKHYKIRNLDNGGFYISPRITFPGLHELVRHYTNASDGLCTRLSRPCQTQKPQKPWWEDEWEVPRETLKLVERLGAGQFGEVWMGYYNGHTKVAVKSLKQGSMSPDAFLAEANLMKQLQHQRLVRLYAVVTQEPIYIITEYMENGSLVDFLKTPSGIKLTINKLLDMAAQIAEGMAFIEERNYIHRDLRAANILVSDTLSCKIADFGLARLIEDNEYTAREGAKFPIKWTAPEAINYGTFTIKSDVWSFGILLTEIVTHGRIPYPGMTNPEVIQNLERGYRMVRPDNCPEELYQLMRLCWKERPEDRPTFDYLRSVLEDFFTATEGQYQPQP

Syk [1] = target: Syk (Homo sapiens, UniProt P43405)
JAK3 = target: T2, JAK3 (Homo sapiens, UniProt P52333); details: dose-dependent fashion
T2 sequence (P52333 1-1124): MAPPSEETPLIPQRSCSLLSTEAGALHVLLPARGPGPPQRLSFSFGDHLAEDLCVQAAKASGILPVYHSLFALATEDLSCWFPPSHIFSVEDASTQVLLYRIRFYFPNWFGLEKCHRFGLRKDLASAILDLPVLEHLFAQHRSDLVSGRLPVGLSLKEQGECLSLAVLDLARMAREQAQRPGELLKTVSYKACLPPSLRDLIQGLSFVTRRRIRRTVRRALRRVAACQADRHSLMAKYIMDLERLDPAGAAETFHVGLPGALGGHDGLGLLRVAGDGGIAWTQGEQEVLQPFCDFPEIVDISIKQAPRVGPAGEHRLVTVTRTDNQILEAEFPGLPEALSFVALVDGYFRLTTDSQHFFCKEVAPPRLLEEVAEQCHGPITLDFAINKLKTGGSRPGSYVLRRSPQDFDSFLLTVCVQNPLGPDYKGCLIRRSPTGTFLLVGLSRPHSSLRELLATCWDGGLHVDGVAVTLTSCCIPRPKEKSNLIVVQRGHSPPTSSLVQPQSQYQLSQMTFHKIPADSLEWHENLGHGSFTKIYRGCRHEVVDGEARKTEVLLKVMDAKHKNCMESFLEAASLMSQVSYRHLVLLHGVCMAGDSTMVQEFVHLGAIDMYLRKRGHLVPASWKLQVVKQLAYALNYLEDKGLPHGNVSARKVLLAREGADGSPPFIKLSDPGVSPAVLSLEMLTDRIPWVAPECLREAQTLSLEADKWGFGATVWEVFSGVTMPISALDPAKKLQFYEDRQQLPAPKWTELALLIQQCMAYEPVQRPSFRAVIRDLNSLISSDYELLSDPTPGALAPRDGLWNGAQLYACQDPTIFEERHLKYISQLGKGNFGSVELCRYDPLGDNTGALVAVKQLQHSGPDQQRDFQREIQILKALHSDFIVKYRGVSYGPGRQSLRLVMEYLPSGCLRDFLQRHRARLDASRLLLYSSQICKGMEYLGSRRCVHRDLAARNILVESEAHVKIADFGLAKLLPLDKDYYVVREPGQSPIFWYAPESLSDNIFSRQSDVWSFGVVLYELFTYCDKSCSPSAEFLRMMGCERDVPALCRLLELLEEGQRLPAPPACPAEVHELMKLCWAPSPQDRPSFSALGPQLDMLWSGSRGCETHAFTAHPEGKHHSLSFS

Syk [2] = system: Syk
tumor microvessels = details: mouse, in vivo
[3] = system: platelet-derived growth factor receptor, fibroblast growth factor receptor, and insulin receptor; details: even at high concentrations
[4] = system: erbB receptor tyrosine kinase family; details: human cancer cell lines
[5] = system: prostate cancer cells and osteoblasts; details: various in vitro and in vivo models
ERK1 = details: low doses
[6] = patients with chronic phase CML

- inhibition of ZAP-70 (ZAP-70): competitive inhibitor
- inhibition of Lck (Lck): poor inhibitor
- inhibition of Syk (Syk [1]): poor inhibitor
Compound: KLILFLLL

Compound: COc1cc2ncnc(Nc3ccc(O)c(Br)c3)c2cc1OC [WHI-P 154, 4-(3′-bromo-4′-hydroxylphenyl)-amino-6,7-dimethoxyquinazoline]
- JAK3 inhibition (JAK3): inhibited JAK3

Compound: Oc1cc(O)cc(/C=C/c2ccc(O)c(O)c2)c1 [Piceatannol, 3,4,3′,5′-tetrahydroxy-trans-stilbene]
- FceRI-mediated IP3 production, serotonin secretion, membrane ruffling and cell spreading (Syk [2]; by inhibiting Syk): inhibits

Compound: Cc1[nH]c(/C=C2\C(=O)Nc3ccccc32)c(C)c1CCC(=O)O [SU6668]
- time to apoptosis in tumor microvessels after initiation of treatment (tumor microvessels): ≤ 6 h
- time to dose-dependent decreases in tumor microvessel density after first treatment (tumor microvessels): ≤ 3 days

Compound: Cc1ccc2c(=O)c3ccccc3n(CCCN)c2c1C.O=C(O)C(=O)O [ER-27319, 3,4-dimethyl-10-(3-aminopropyl)-9-acridone oxalate]
- FceRI-mediated degranulation, tyrosine phosphorylation of Syk (Syk [2]; intact mast cells, not Lyn): inhibits

- JAK3 inhibition (JAK3): inhibited JAK3
Compound: COc1cc2ncnc(Nc3cc(Br)c(O)c(Br)c3)c2cc1OC [WHI-P97, 4-(3′,5′-dibromo-4′-hydroxylphenyl)-amino-6,7-dimethoxyquinazoline]

- inhibition of tyrosine kinase activity [4]: prompt, potent, and sustained inhibition
Compound: C=CC(=O)Nc1cc2c(Nc3ccc(F)c(Cl)c3)ncnc2cc1OCCCN1CCOCC1 [CI-1033]
- inhibition of tyrosine kinase activity of other receptors [3]: without inhibiting

Compound: CO[C@]1(CO)C[C@H]2O[C@]1(C)n1c3ccccc3c3c4c(c5c6ccccc6n2c5c31)C(=O)NC4 [CEP-75 1]
- apoptosis of prostate cancer cells and osteoblasts [5]: selectively induce apoptosis

Compound: C[C@]12O[C@H](C[C@]1(O)CO)n1c3ccccc3c3c4c(c5c6ccccc6n2c5c31)CNC4=O [CEP-701]
- apoptosis of prostate cancer cells and osteoblasts [5]: selectively induce apoptosis

Compound: Cc1ccc(NC(=O)c2ccc(CN3CCN(C)CC3)cc2)cc1Nc1nccc(-c2cccnc2)n1 [Imatinib mesylate]
- complete cytogenetic response (CML patients; accelerated phase CML): 14%
- complete cytogenetic response maintained for four weeks (CML patients; accelerated phase CML): 4%
- remissions (CML patients; accelerated phase CML patients): 63%
- complete cytogenetic response (CML patients; blast phase CML): 5%
- complete cytogenetic response maintained for four weeks (CML patients; blast phase CML): 1%
- remissions (CML patients; blast phase patients): 26%
- complete cytogenetic response (CML patients; chronic phase CML): 30%
- complete cytogenetic response maintained for four weeks (CML patients; chronic phase CML): 16%
- complete hematologic response (CML patients; [6]): 88%
- major cytogenetic response (CML patients; [6]): 49%

Compound: O=C(NOCC1CC1)c1ccc(F)c(F)c1Nc1ccc(I)cc1Cl [PD184352]
- ERK1 activity (ERK1): abolished
- effect on ERK5 (ERK5; low doses): no effect

Compound: N#CC(=C(/N)Sc1ccccc1N)/C(C#N)=C(\N)Sc1ccccc1N [U0126]
- ERK5/BMK1 pathway inhibition (ERK5): inhibited
- cyclin D1 expression and cell proliferation (ERK1/2 pathway): prevented cyclin D1 expression and inhibits cell proliferation

Compound: COc1cccc(-c2cc(=O)c3ccccc3o2)c1N [PD98059]
- ERK5/BMK1 pathway inhibition (ERK5): inhibited
- cyclin D1 expression and cell proliferation (ERK1/2 pathway): prevented cyclin D1 expression and inhibits cell proliferation
